In US20260101901A1, “DELAYING BLOOM IN HORTICULTURAL CROPS USING JASMONIC ACID BIOSYNTHESIS INHIBITORS” (VIRGINIA TECH INTELLECTUAL PROPERTIES INC., priority 2022, published 2026):

Columns and labels:
‘John Boy’ peach trees [1] = test: Exp. 1 (2021) field trial: DIECA concentrations sprayed at 1000 GDH, bloom time, fruit set and size; assay type: in vivo; conditions: for Heat requirements / Flowering (F50) date / Days from endodormancy release to flowering (F50): sprayed at 1000 GDH, ‘John Boy’ 2021; for Flowering (F50) date: control 06 April; for Days from endodormancy release to flowering (F50): control 69 b
Description: (§1) The field trials were taken place at the Alson H. Smith Jr. Agricultural Research and Extension Center (AREC), Winchester, VA, the United States (39°06′36.0′N 78°16′48.0′W). Experiments were conducted over two growing seasons (2021 and 2022) on 3-year-old ‘John Boy’ and 10-year-old ‘Redhaven’ peach trees; both are grafted on ‘Lovell’ rootstock.
(§2) Chilling and heat accumulation were computed from meteorological data obtained from each orchard. Data loggers (EasyLog, Lascar) were kept in enclosed wooden shelters 1.2 m above the ground and recorded temperatures at 10 min intervals. Chilling requirements were calculated using the chilling hours (CH) model (Weinberger, 1950), in which each hourly temperatures within the range of 0-7.2° C. were registered as 1 CH, and temperatures outside of this range were not considered. Starting at 500 CH, three one-year-old branches, each with at least 10 floral buds, were collected weekly from each treatment. After removal of the terminal buds, the branches were placed in a beaker containing a floral solution prepared with Floralife (Smithers-Oasis Co., Walterboro, SC, USA). The floral solution was replaced weekly and around 1 cm was trimmed from the basal end of each branch to eliminate potential infections. The branches were kept in a growth chamber with conditions favoring bud growth (photoperiod with fluorescent lamps at 135 μmol·m^−2·s^−1 of 16 h at 25° C., a dark period of 8 h at 20° C., and a constant relative humidity of 65%). The endodormancy release and CRs were considered fulfilled when 50% of the buds have reached the calyx green stage after 14 days in the growth chamber.
(§3) After completion of CR, heat requirements were recorded according to the growing degree hours (GDH) model proposed by Richardson et al. (1975). In this model, hourly temperatures less than 4.5° C. registered no GDH; temperatures in the interval of 4.5-25° C. were adjusted by subtracting 4.5° C., and temperatures greater than 25° C. were registered as 20.5 (25-4.5) GDH. Heat requirements (HR) were calculated as the GDH accumulated from the date of endodormancy release (under growth chambers conditions) to the date 50% of buds were in full bloom, F50 (under field conditions).
This trial was conducted on ‘John Boy’ peach trees. Three different concentrations (0.5 mM, 10 mM, and 25 mM) of DIECA (Sigma-Aldrich Co., St Louis, MO, USA) were sprayed on three groups of trees, each group is composed of three adjacent trees. Treatments and control (untreated) trees were arranged in a completely randomized design (CRD). At least one buffer tree was assigned between each treatment to avoid spray drift. Trees were sprayed on 3 Mar. 2021 at 1000 GDH at a spray volume of 0.3 L per tree, using a hand sprayer. Regulaid (250 ppm), a non-ionic surfactant from Kalo Inc. (Overland Park, KS, United States) was mixed with all treatments and experiments at the rate of 250 ppm.
(§4) At the pink-bud stage, three-four branches from each treated and untreated (control) tree were randomly selected across the tree and flagged using colored ribbons. The number of buds on selected branches (at least 80 bud/tree) was used as the initial bud count. The progression of flower opening was recorded by periodically counting the number of open blossoms in each experiment. The number of open flowers (anthers visible) was counted every 1-3 days until all buds reached the full bloom stage (50% of flowers are fully open). The blooming rate at each time point was calculated as the ratio of open blossoms to the initial bud number per tree, and the flowering date (F50) for each treatment was determined when the blooming rate reached 50%. The numbers of fruit on the marked branches were counted 2 and 4 and 8 weeks after full bloom. Percent fruit set was calculated as the number of fruits divided by the number of flowers times 100.

‘Redhaven’ peach trees [2] = test: Exp. 3 (2022) field trial: DIECA concentrations sprayed at 500 GDH, bloom time and fruit set; assay type: in vivo; conditions: for Heat requirements / Flowering (F50) date / Days from endodormancy release to flowering (F50): sprayed at 500 GDH, ‘Redhaven’ 2022; for Flowering (F50) date: control 01 April; for Days from endodormancy release to flowering (F50): control 72 c
Description: as §1, §2, §3
In this trial, we used peach ‘Redhaven’ trees to examine the effects of three different concentrations (12.5, 25 and 50 mM) of DIECA on blooming time. Three adjacent trees were assigned for each treatment. All treated and untreated (control) trees were distributed in the orchard according to the CRD experimental design. DIECA treatments were applied at 500 GDH at a spray volume of 1.8 L per tree, using a high-pressure tree sprayer.
as §4

‘John Boy’ peach trees [3] = test: Exp. 4 (2022) field trial: late DIECA application at 2000 GDH, bloom time and fruit set; assay type: in vivo; conditions: DIECA 50 mM at 2000 GDH
Description: as §1
(§5) Chilling and heat accumulation were computed from meteorological data obtained from each orchard. Data loggers (EasyLog, Lascar) were kept in enclosed wooden shelters 1.2 m above the ground and recorded temperatures at 10 min intervals. Chilling requirements were calculated using the chilling hours (CH) model (Weinberger, 1950), in which each hourly temperatures within the range of 0-7.2° C. were registered as 1 CH, and temperatures outside of this range were not considered. Starting at 500 CH, three one-year-old branches, each with at least 10 floral buds, were collected weekly from each treatment. […]
(§6) After completion of CR, heat requirements were recorded according to the growing degree hours (GDH) model proposed by Richardson et al. (1975). […] Heat requirements (HR) were calculated as the GDH accumulated from the date of endodormancy release (under growth chambers conditions) to the date 50% of buds were in full bloom, F50 (under field conditions). […]

‘John Boy’ peach trees [4] = test: Exp. 1 (2021) field trial: DIECA concentrations sprayed at 1000 GDH, bloom time, fruit set and size; assay type: in vivo; design: Delay of the flowering date (F50) vs control: dose or concentration left out as unconfirmed
‘Redhaven’ peach trees [5] = test: Exp. 2 (2021) field trial: DIECA application timing, bloom time; assay type: in vivo; conditions: DIECA 10 mM applied at 1000 GDH
Description: as §1, §5, §6

[6] = test system: ginseng, wheat and tea plant (Camellia sinensis); conditions: DIECA application; cited from earlier work
[7] = test system: peach and other stone fruits; conditions: cited from earlier work
‘Redhaven’ peach = assay type: in vivo; conditions: antipyrine 50 mM, propyl gallate 15 mM, four weekly applications from swollen bud stage
Description: (§7) In this study, we investigated the influence of propyl gallate and Antipyrine on the flowering time of ‘Redhaven’ and ‘Sunhigh’ cultivars. Three adjacent trees were randomly chosen, each as a replicate, and subjected to treatments: propyl gallate (15 mM), antipyrine (50 mM), and an untreated control. Four applications of each treatment were administered weekly, commencing at the swollen bud stage, which are concurrent at 2059, 2167, 2356, and 3128 DGH, respectively, employing a hand sprayer with the volume of 2.5 L per tree. Regulaid, a non-ionic surfactant from Kalo Inc. (Overland Park, KS, United States) was mixed with all treatments and experiments at the rate of 250 ppm.
as §4, with “The number of buds on selected branches (at least 80 bud/tree) was used as the initial bud count.” left out, “The numbers of fruit on the marked branches were counted 2 and 4 and 8 weeks after full bloom. Percent fruit set was calculated as the number of fruits divided by the number of flowers times 100.” left out

‘Sunhigh’ peach = test: Exp. 5 (2023) field trial: propyl gallate and antipyrine, flowering time; assay type: in vivo; conditions: antipyrine 50 mM, propyl gallate 15 mM, four weekly applications from swollen bud stage
Description: as §7
as §4, with “The number of buds on selected branches (at least 80 bud/tree) was used as the initial bud count.” left out, “The numbers of fruit on the marked branches were counted 2 and 4 and 8 weeks after full bloom. Percent fruit set was calculated as the number of fruits divided by the number of flowers times 100.” left out

## CCN(CC)C(=S)[S][Na] [DIECA, sodium diethyldithiocarbamate]
‘John Boy’ peach trees [1]; DIECA 0.5, 10, 25 mM, 6 WAFB
  Fruit size vs control: No significant differences
‘Redhaven’ peach trees [2]; DIECA 12.5, 25, 50 mM at 500 GDH, 2 and 4 WAFB
  Fruit set (%) vs control: did not show significant differences
‘John Boy’ peach trees [3]; 2 and 4 WAFB
  Fruit set (%) vs control: no significant differences
‘John Boy’ peach trees [4]; DIECA 0.5, 10, 25 mM, 3 and 6 WAFB
  Fruit set (%) vs control: No significant differences

## CCN(CC)C(=S)[S-].[Na+] [DIECA, sodium diethyldithiocarbamate]
‘John Boy’ peach trees [1]; DIECA 0.5 mM
  Heat requirements: 5373 GDH
  Flowering (F50) date: 06 April
  Days from endodormancy release to flowering (F50): 69 b days
‘John Boy’ peach trees [1]; DIECA 10 mM
  Heat requirements: 5539 GDH
  Flowering (F50) date: 07 April
  Days from endodormancy release to flowering (F50): 70 b days
‘John Boy’ peach trees [1]; DIECA 25 mM (highest concentration), 1000 GDH, ‘John Boy’
  Delay in the blooming: significant delay in the blooming
‘John Boy’ peach trees [1]; DIECA 25 mM
  Heat requirements: 6048 GDH
  Flowering (F50) date: 08 April
  Days from endodormancy release to flowering (F50): 72 a days
‘Redhaven’ peach trees [5]
  Bloom progression compared to the control: slightly delayed bloom progression
‘Redhaven’ peach trees [5]; 2000 GDH or 1000+2000 GDH
  Bloom-delaying effect: None of the DIECA application timings showed a significant bloom-delaying effect
‘Redhaven’ peach trees [2]; DIECA 12.5 mM
  Heat requirements: 6090 GDH
  Flowering (F50) date: 04 April
  Days from endodormancy release to flowering (F50): 75 bc days
‘Redhaven’ peach trees [2]; DIECA 25 mM at 500 GDH
  Delay in bloom time compared to the untreated control: 3 days
‘Redhaven’ peach trees [2]; DIECA 25 mM
  Heat requirements: 6090 GDH
  Flowering (F50) date: 04 April
  Days from endodormancy release to flowering (F50): 75 b days
‘Redhaven’ peach trees [2]; DIECA 50 mM at 500 GDH
  Delay in bloom time compared to the untreated control: 6 days
‘Redhaven’ peach trees [2]; DIECA 50 mM
  Heat requirements: 6478 GDH
  Flowering (F50) date: 07 April
  Days from endodormancy release to flowering (F50): 78 a days
‘Redhaven’ peach trees [2]; all DIECA applications (12.5, 25, 50 mM) at 500 GDH
  Bloom delay: remarkable bloom delay
‘Redhaven’ peach trees [2]; high DIECA concentrations (>25 mM) at early ecodormancy (~500 GDH)
  Bloom delay in peach: 3 to 6 days
‘John Boy’ peach trees [3]
  Flowering time vs control: No significant differences
‘John Boy’ peach trees [4]; DIECA, 1000 GDH, ‘John Boy’
  Delay of the flowering date (F50) vs control: three
[6]
  JA levels: substantially reduce JA levels

## O=P(O)(O)CCCl [ET, 2-chloroethylphosphonic acid]
[7]; high concentration application
  Detrimental effects: gummosis, abortion of floral buds and dieback of the branches
[7]; high concentration, applied in the fall
  Bloom delay: more than two weeks

## Cc1cc(=O)n(-c2ccccc2)n1C [Antipyrine, antipyrine]
‘Redhaven’ peach
  Bloom delay compared to the control: two
‘Sunhigh’ peach
  Bloom delay compared to the control: four

## CCCOC(=O)c1cc(O)c(O)c(O)c1 [propyl gallate, n-propyl gallate]
‘Redhaven’ peach
  Bloom delay compared to the control: no significant impact
‘Sunhigh’ peach
  Bloom delay compared to the control: single
